US8895738B2, “Mesoionic pyrido [1, 2-A] pyrimidine pesticides” (E I du Pont de Nemours and Company, priority 2010, dated 2014)
Structures can show the parent of a compound that is named as a salt.

Key:
Type in all cases: in vivo
[1] = system: Rice plants (indica cultivar ‘Swarna’); assay: Test N: harvest yield of rice crop outdoors, two foliar applications, Bargarh; conditions: applied twice, Nilaparvata lugens level high, controls 620 kg/ha
Protocol: (§1) To evaluate the effect of application of a compound of the invention on the vigor of rice crops grown under outdoor conditions, Tests 1 through 0 were conducted. “a.i.” refers to the amount of active ingredient applied.
Rice plants (indica cultivar ‘Swarna’) were transplanted into flooded 4 m×3 m test plots of clay loam soil in the Bargarh district, Orissa, India, during the rainy season, and grown using local agronomic practices. After 70 days, aqueous mixtures of Compound 3 were applied to the foliage of the rice plants at 12.5, 25 or 50 g a.i./ha in a spray volume of 400 L/ha using a backpack sprayer. Plots of unsprayed rice plants were used as controls. Each treatment and control was replicated three times, and the plots were arranged in a randomized complete block design. At the time of application of Compound 3, the pest level of rice brown planthopper (Nilaparvata lugens) was high, i.e. much above the level considered economically significant. 14 days after the first treatment, the foliar applications of aqueous mixtures of Compound 3 were repeated at the same application rates in a spray volume of 400 L/ha.
Harvest yields from the crops treated with 12.5, 25 and 50 g a.i./ha of Compound 3 were 3190, 3660 and 4220 kg/ha, respectively, compared to 620 kg/ha from the untreated controls.

[2] = system: maize plants (Prairie Hybrid 2431 organic field corn); assay: Test P: vigor (height) of maize plants in greenhouse in absence of pest pressure, surface drench
Protocol: In this test, the effect of a compound of the invention on the vigor of maize plants grown in a greenhouse in absence of pest pressure was measured.
Single maize seeds (Prairie Hybrid 2431 organic field corn) were planted 2.0 to 2.5 cm deep in 10 cm×10 cm×8 cm plastic pots containing either Redi-Earth sphagnum peat moss-based potting media (Sun Gro Horticulture Canada Ltd., Vancouver, British Columbia) or a 50/50 mixture of Matapeake soil and sand. Seeded pots were initially watered to a 5 cm depth and placed in a growth chamber maintained at 25° C. within a 16 h light/8 h dark photoperiod. The pots were watered whenever the soil surface dried.
After 8 days from initial watering, the potted plants were treated by applying as a surface drench 40 mL of an aqueous treatment mixture containing either 0.2 or 2.5 mg of Compound 3. To the pots of untreated control plants, 40 mL of tap water was similarly applied. Treatments and untreated controls were replicated 10 times.
Treated and untreated plants were then arranged in a complete randomized block design in a greenhouse maintained at 25.6-27.8° C. during the day and 23.0-25.0° C. at night. Supplemental lighting was added when outside light levels dropped below 200 watts m^−2 during a 16-h growing period, except that no supplemental lighting was activated when outside light energy had already accumulated to more than 5000 w h m^−2 during the growing period. Greenhouse shading closed when outside light levels rose above 600 watts m^−2 for more than 20 minutes.
No modifications to relative humidity were made. Tap water irrigation was provided twice daily as needed to maintain soil moisture. Every second or third day the plants were fertilized with irrigation water containing 100 ppm N—P—K from Peters® soluble 20-20-20 general purpose fertilizer (The Scotts Company, Marysville, Ohio, U.S.A.). The applied nutrient levels were considered less that ideal for optimal growth of maize plants.
Plant height was determined at 0, 7, 14, 21 and 28 days after treatment by measuring the length from the vertically extended longest leaf tip to the soil surface. The heights averaged across the 10 replicates are listed in Test Tables 1 and 2 for plants grown in Redi-Earth soil and Matapeake Soil/Sand, respectively.

[3] = system: corn planthopper (Peregrinus maidis); assay: Test D: control of corn planthopper on maize plant, contact and/or systemic; conditions: 144 h, assessed after 6 days, read-out: control efficacy: mortality
Protocol: For evaluating control of corn planthopper (Peregrinus maidis) through contact and/or systemic means, the test unit consisted of a small open container with a 3-4-day-old maize plant (spike) inside. White sand was added to the top of the soil prior to application. Test compounds were formulated and sprayed at 250, 50, 10 and/or 2 ppm, and replicated three times as described for Test A. After spraying, the test units were allowed to dry for 1 h before they were post-infested with ˜15-20 nymphs (18 to 21 day old) by sprinkling them onto the sand with a salt shaker. A black, screened cap was placed on the top of each test unit, and the test units were held for 6 days in a growth chamber at 22-24° C. and 50-70% relative humidity. Each test unit was then visually assessed for insect mortality.

[4] = system: Rice plants (indica cultivar ‘MTU1010’); assay: Test J: vigor of rice crop outdoors, two foliar applications, West Godavri; conditions: applied twice, 48 days after first application, Nilaparvata lugens level high
Protocol: as §1
Rice plants (indica cultivar ‘MTU1010’) were transplanted into flooded 5 m×3 m test plots of clay loam soil in the delta region of the West Godavri district, Andhra Pradesh, India, during the rainy season, and grown using local agronomic practices. After 52 days, aqueous mixtures of Compound 3 were applied to the foliage of the rice plants at 12.5, 25 or 50 g a.i./ha in a spray volume of 387 L/ha using a backpack sprayer. Plots of unsprayed rice plants were used as controls. Each treatment and control was replicated three times, and the plots were arranged in a randomized complete block design. At the time of application of Compound 3, the pest level of rice brown planthopper (Nilaparvata lugens) was high, i.e. much above the level considered economically significant. 20 days after the first treatment, the foliar applications of aqueous mixtures of Compound 3 were repeated at the same application rates in a spray volume of 467 L/ha.

[5] = Matapeake Soil/Sand, 0.2 mg a.i./pot
[6] = Matapeake Soil/Sand, 2.5 mg a.i./pot
[7] = Redi-Earth Soil, 0.2 mg a.i./pot
[8] = Redi-Earth Soil, 2.5 mg a.i./pot

## O=c1c(-c2cccc(C(F)(F)F)c2)c([O-])[n+](Cc2cncnc2)c2ccccn12 [Compound 3, 2-hydroxy-4-oxo-1-(5-pyrimidinylmethyl)-3-[3-(trifluoromethyl)phenyl]-4H-pyrido[1,2-a]pyrimidinium inner salt]
[1]; 12.5 g a.i./ha foliar
  harvest yield: 3190 kg/ha
[1]; 25 g a.i./ha foliar
  harvest yield: 3660 kg/ha
[1]; 50 g a.i./ha foliar
  harvest yield: 4220 kg/ha
[2]; [5]
  Height (cm) at Days after Treatment 0 days: 22 cm
  Height (cm) at Days after Treatment 7 days: 49 cm
  Height (cm) at Days after Treatment 14 days: 66 cm
  Height (cm) at Days after Treatment 21 days: 76 cm
  Height (cm) at Days after Treatment 28 days: 87 cm
[2]; [6]
  Height (cm) at Days after Treatment 0 days: 22 cm
  Height (cm) at Days after Treatment 7 days: 46 cm
  Height (cm) at Days after Treatment 14 days: 65 cm
  Height (cm) at Days after Treatment 21 days: 78 cm
  Height (cm) at Days after Treatment 28 days: 88 cm
[2]; [7]
  Height (cm) at Days after Treatment 0 days: 22 cm
  Height (cm) at Days after Treatment 7 days: 53 cm
  Height (cm) at Days after Treatment 14 days: 85 cm
  Height (cm) at Days after Treatment 21 days: 111 cm
  Height (cm) at Days after Treatment 28 days: 131 cm
[2]; [8]
  Height (cm) at Days after Treatment 0 days: 21 cm
  Height (cm) at Days after Treatment 7 days: 53 cm
  Height (cm) at Days after Treatment 14 days: 85 cm
  Height (cm) at Days after Treatment 21 days: 111 cm
  Height (cm) at Days after Treatment 28 days: 137 cm
[2]; pest-free environment, nutrient constrained, both soils, 0.2 or 2.5 mg per pot
  growth enhancing effect on maize plants: little growth enhancing effect was noticeable
[3]; sprayed at 2 ppm
  mortality at 2 ppm: ≥ 80%
[3]; sprayed at 10 ppm
  mortality at 10 ppm: ≥ 80%
[3]; sprayed at 50 ppm
  mortality at 50 ppm: ≥ 80%
[3]; sprayed at 250 ppm
  mortality at 250 ppm: ≥ 80%
[4]; 12.5 g a.i./ha foliar
  crop vigor (visual rating, 0 to 200% scale, untreated = 100%): 148%
[4]; 25 g a.i./ha foliar
  crop vigor (visual rating, 0 to 200% scale, untreated = 100%): 148%
[4]; 50 g a.i./ha foliar
  crop vigor (visual rating, 0 to 200% scale, untreated = 100%): 148%
